Laboratory results published in patent US11839613B2, “Pyrimidine derivatives as PGE2 receptor modulators” (IDORSIA PHARMACEUTICALS LTD, priority 2017, dated 2023).
pIC50: −log10 of the molar value.

Experiments:
PTGER2 (EP2) = PTGER2 (EP2) (Homo sapiens (Human), UniProt P43116); assay: hEP2 b-arrestin assay (PathHunter HEK 293 PTGER2 b-arrestin cells); assay type: cell-based; settings: antagonistic activity, beta-arrestin assay; read-out: hEP2 b-arr IC50
Experimental: Plate is pre-incubated 15 minutes at 37° C. Then five microliters of PGE2 (final conc. 5 μM) are transferred into the assay plate. Plate is incubated 120 minutes at 37° C.
(each concentration is measured in duplicate)

EP2 = EP2 (Homo sapiens (Human), UniProt P43116); assay: hEP2 cAMP assay (SF295 glioblastoma cells, HTRF cAMP); assay type: cell-based; settings: antagonistic activity
EP2, sequence (P43116 whole entry): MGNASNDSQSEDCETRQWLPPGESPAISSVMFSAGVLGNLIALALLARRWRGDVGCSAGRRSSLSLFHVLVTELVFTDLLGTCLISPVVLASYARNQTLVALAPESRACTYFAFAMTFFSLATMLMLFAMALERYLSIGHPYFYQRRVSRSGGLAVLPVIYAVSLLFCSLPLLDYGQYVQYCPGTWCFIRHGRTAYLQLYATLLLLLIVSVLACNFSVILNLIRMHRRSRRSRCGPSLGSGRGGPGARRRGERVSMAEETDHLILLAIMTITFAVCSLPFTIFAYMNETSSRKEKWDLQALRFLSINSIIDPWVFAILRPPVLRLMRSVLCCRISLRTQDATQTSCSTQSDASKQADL
Outline: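 PGE2-driven cAMP accumulation was measured by HTRF in SF295 cells, which express endogenous EP2 only. Cells in assay buffer with 2 mM IBMX were pre-incubated 45 min at RT, then incubated 30 min at RT. Detection used competition between cellular cAMP and d2-cAMP for a cryptate anti-cAMP antibody.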

EP4 = EP4 (Homo sapiens (Human), UniProt P35408); assay: hEP4 cAMP assay (BT549 breast cancer cells, HTRF cAMP); assay type: cell-based; settings: antagonistic activity, PGE2 6 nM
EP4, sequence (P35408 whole entry): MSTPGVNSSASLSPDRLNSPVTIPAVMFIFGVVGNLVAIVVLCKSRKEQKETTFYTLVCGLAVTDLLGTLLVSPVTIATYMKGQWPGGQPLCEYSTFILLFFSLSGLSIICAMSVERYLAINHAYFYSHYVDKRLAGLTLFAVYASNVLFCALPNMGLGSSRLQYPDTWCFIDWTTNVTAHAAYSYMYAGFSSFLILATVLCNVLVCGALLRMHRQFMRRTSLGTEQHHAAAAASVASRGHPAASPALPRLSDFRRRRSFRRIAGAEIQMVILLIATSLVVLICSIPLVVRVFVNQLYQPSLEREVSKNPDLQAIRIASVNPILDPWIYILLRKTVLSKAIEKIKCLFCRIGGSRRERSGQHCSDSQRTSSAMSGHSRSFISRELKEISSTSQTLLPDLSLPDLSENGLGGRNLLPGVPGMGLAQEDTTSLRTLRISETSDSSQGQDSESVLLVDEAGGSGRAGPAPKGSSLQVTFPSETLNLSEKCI
Outline: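 BT549 breast cancer cells (endogenous EP4) in HBSS/20 mM HEPES/0.2% BSA/2 mM IBMX preincubated 45 min at RT with compound, then stimulated 30 min at RT with 6 nM PGE2 (final). cAMP read by competitive HTRF immunoassay, signal inversely proportional to cAMP.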

PTGER4 (EP4) = PTGER4 (EP4) (Homo sapiens (Human), UniProt P35408)
PTGER4 (EP4), sequence (P35408 whole entry): as above

PTGER2 (EP2), sequence (P43116 whole entry): as the sequence (P43116 whole entry) above

Compound	pIC50 (PTGER2 (EP2))	pIC50 (EP2)	pIC50 (EP4)	pIC50 (PTGER4 (EP4))	pIC50 (EP4; BT549 cells)
CCOc1cc(-c2cc(NCCc3cc4ccsc4cc3C#N)ncn2)ccc1C(=O)O [Ex 128]	6.82	7.12	6.99	6.72	
CCOc1cc(-c2cc(NCCc3cc4ccsc4cc3OC)ncn2)ccc1CC(=O)O [Ex 118]	7.47	7.18	7.06	7.13	
COc1cc2ccccc2c(C)c1CCNc1cc(-c2ccc(C(=O)O)c(SC)c2)ncn1 [Ex 59]	7.43	7.74	7.52	7.03	
COc1cc2sccc2cc1CCNc1cc(-c2ccc(C(=O)O)c(OC3CCC3)c2)ncn1 [Ex 63]	7.80	7.92	7.48	7.30	
CCOc1cc(-c2cc(NCCc3ccc4cccc(F)c4c3)ncn2)ccc1CC(=O)O [Ex 314]	5.46	5.03	6.15	6.42	
CSc1cc(-c2cc(NCCc3cc4ccsc4cc3C)ncn2)ccc1CC(=O)O [Ex 305]	7.24	6.63	6.19	5.87	
Cc1c(CCNc2cc(-c3ccc(C(=O)O)c(OC4CCC4)c3)ncn2)ccc2sccc12 [Ex 268]	7.60	7.33	6.47	6.16	
CCOc1cc(-c2cc(NCCc3ccc4c(c3)CCS4)ncn2)sc1C(=O)O [Ex 15]	6.75	7.55	8.10	7.92	
CCOc1cc(-c2cc(NCCc3cc4c(cc3OC)OCCO4)ncn2)sc1C(=O)O [Ex 26]	7.72	7.72	7.80	7.66	
CCOc1cc2ccccc2cc1CCNc1cc(-c2ccc(OCC(=O)O)c(OCC)c2)ncn1 [Ex 160]	7.46	7.03	6.80	7.62	
CCOc1cc(-c2cc(NCCc3cc4ccccc4cc3OC(F)F)ncn2)sc1C(=O)O [Ex 45]	6.90	6.73	7.68	8.30	
CCOc1cc2sccc2cc1CCNc1cc(-c2ccc(OCC(=O)O)c(OCC)c2)ncn1 [Ex 53]	8.30	7.92	7.60	7.92	
CCOc1cc(-c2cc(NCCc3ccc4cccc(F)c4c3)ncn2)ccc1C(=O)O [Ex 269]	5.79	5.19	6.36	6.23	
CCOc1cc2ccccc2cc1CCNc1cc(-c2ccc(C(=O)O)c(OCC)c2)ncn1 [Ex 188]	7.35	6.85	6.69	6.98	
O=C(O)c1ccc(-c2cc(NCCc3ccc4c(c3)CCS4)ncn2)cc1OC1CCC1 [Ex 170]	6.62	7.03	6.77	6.91	
2-Ethoxy-4-{6-[2-(7-ethynyl-2,3-dihydro-benzo[1,4]dioxin-6-yl)-ethylamino]-pyrimidin-4-yl}-benzoic acid [Example 439]	7.77	7.48		6.71	6.86
CCOc1cc(-c2cc(NCCc3ccc4sncc4c3)ncn2)sc1C(=O)O [Ex 135]	6.70	6.77	6.94	6.76	
CCOc1cc2sccc2cc1CCNc1cc(-c2ccc(C(=O)O)c(OCC)c2)ncn1 [Ex 126]	8.10	8.22	7.00	7.18	
CCOc1cc(-c2cc(NCCc3ccc4sccc4c3C)ncn2)ccc1CC(=O)O [Ex 289]	6.84	6.45	6.28	6.02	
CSc1cc(-c2cc(NCCc3ccc4sccc4c3C)ncn2)ccc1C(=O)O [Ex 204]	7.92	7.54	6.73	6.20	
CCOc1cc(-c2cc(NCCc3ccc4sccc4c3)ncn2)ccc1OCC(=O)O [Ex 121]		6.55	7.03	7.38	
CCOc1cc(-c2cc(NCCc3ccc4ncsc4c3)ncn2)sc1C(=O)O [Ex 91]		6.23	7.25	7.40	
O=C(O)c1ccc(-c2cc(NCCc3ccc4scnc4c3)ncn2)cc1OC1CCC1 [Ex 291]		6.57	6.27	6.09	
(4-{6-[2-(7-Ethynyl-2,3-dihydro-benzo[1,4]dioxin-6-yl)-ethylamino]-pyrimidin-4-yl}-2-propyl-phenyl)-acetic acid [Example 440]		7.60		7.29	7.19
CCOc1cc(-c2cc(NCCc3cc4cccnc4cc3C)ncn2)sc1C(=O)O [Ex 177]		6.55	6.73	6.81	
CCOc1cc(-c2cc(NCCc3c(F)cc4ncccc4c3F)ncn2)ccc1OCC(=O)O [Ex 191]		6.48	6.68	6.55	

Compound	pIC50 (PTGER2 (EP2))	pIC50 (EP2)	pIC50 (EP4)	pIC50 (PTGER4 (EP4))	pIC50 (EP4; BT549 cells)
CCOc1cc(-c2cc(NCCc3ccc4sccc4c3)ncn2)ccc1OC(C)C(=O)O (centres unmarked) [Ex 202]		6.56	6.63	7.11	
CCOc1cc(-c2cc(NCCc3cc4ccccc4cc3OC(C)C)ncn2)ccc1OCC(=O)O [Ex 89]		4.71	7.27	7.77	
CCOc1cc(-c2cc(NCCc3cc4ccccc4cc3Cl)ncn2)ccc1C(=O)O [Ex 279]		6.25	6.31	6.13	
C=Cc1c(CCNc2cc(-c3cc(OCC)c(C(=O)O)s3)ncn2)ccc2ccccc12 [Ex 75]		6.32	7.39	7.07	
CCOc1cc(-c2cc(NCCc3cc4ccn(C)c4cc3F)ncn2)sc1C(=O)O [Ex 16]		6.57	8.10	8.30	
CCOc1cc(-c2cc(NCCc3cc4ccccc4cc3C#N)ncn2)ccc1C(=O)O [Ex 92]		5.77	7.24	6.98	
CCOc1cc(-c2cc(NCCc3c(C#N)cc4ccccc4c3C)ncn2)ccc1C(=O)O [Ex 54]		6.48	7.57	7.17	
COc1cc2c(cc1CCNc1cc(-c3ccc(C(=O)O)c(SC)c3)ncn1)CCCN2 [Ex 329]		6.12	6.02	6.10	
CCOc1cc(-c2cc(NCCc3cc4c(cc3Cl)NCCO4)ncn2)sc1C(=O)O [Ex 149]		6.21	6.84	6.71	
CCOc1cc(-c2cc(NCCc3cc4ccccc4cc3OC(C)C)ncn2)ccc1C(=O)O [Ex 284]		< 4.55	6.29	6.90	
CCOc1cc(-c2cc(NCCc3cc(F)c4ncccc4c3F)ncn2)sc1C(=O)O [Ex 86]		6.35	7.31	7.10	
CCOc1cc(-c2cc(NCCc3ccc4ncccc4c3)ncn2)sc1-c1noc(=O)[nH]1 [Example 338, 3-{3-Ethoxy-5-[6-(2-quinolin-6-yl-ethylamino)-pyrimidin-4-y]-thiophen-2-yl}-[1,2,4]oxadiazol-5(4H)-one]		6.34	7.19	7.82	
CCOc1cc(-c2cc(NCCc3cc4cccnc4c(C)c3Cl)ncn2)ccc1OCC(=O)O [Ex 179]		6.25	6.73	6.51	
CCOc1cc(-c2cc(NCCc3cc4ccccc4cc3OC(C)C)ncn2)sc1C(=O)O [Ex 31]		5.11	7.74	8.22	
CCOc1cc(-c2cc(NCCc3cc4c(cc3C#N)OCCO4)ncn2)ccc1C(=O)O [Ex 203]		6.16	6.63	6.45	
CCOc1cc(-c2cc(NCCc3cc4cnccc4cc3F)ncn2)sc1C(=O)O [Ex 106]		6.08	7.13	6.87	
O=C(O)c1ccc(-c2cc(NCCc3cc4ccccc4cc3OC(F)F)ncn2)cc1OC1CCC1 [Ex 180]		6.16	6.73	7.26	
N#Cc1cc2c(cc1CCNc1cc(-c3ccc(C(=O)O)c(OC4CCC4)c3)ncn1)OCCO2 [Ex 113]		6.60	7.09	6.75	
CCOc1cc(-c2cc(NCCc3cc4c(cc3Cl)OC(F)(F)O4)ncn2)sc1C(=O)O [Ex 165]		6.48	6.79	6.73	
COc1c(CCNc2cc(-c3ccc(C(=O)O)c(SC)c3)ncn2)cc2ccccc2c1Cl [Ex 186]		6.09	6.69	6.71	
C#Cc1c(CCNc2cc(-c3ccc(OCC(=O)O)c(OCC)c3)ncn2)ccc2ccccc12 [Ex 140]		6.34	6.92	7.02	
CCOc1cc(-c2cc(NCCc3cc4ccccc4c(Cl)c3OC)ncn2)sc1C(=O)O [Ex 19]		6.60	7.96	7.80	
C#Cc1c(CCNc2cc(-c3ccc(C(=O)O)c(OC4CCC4)c3)ncn2)ccc2ccccc12 [Ex 131]		6.45	6.97	7.17	
CCOc1cc(-c2cc(NCCc3c(OC)cc4ccccc4c3F)ncn2)ccc1CC(=O)O [Ex 37]		6.55	7.66	7.80	
CCOc1cc(-c2cc(NCCc3ccc4ccsc4c3)ncn2)ccc1OCC(=O)O [Ex 144]		6.12	6.88	7.04	
